Data from PMC12079444, “Antagonist Targeting the Species‐Specific Fatty Acid Dehydrogenase/Isomerase FabX for Anti‐H. pylori Infection” (Advanced Science, 2025).
In brackets after ≈: the same amount, converted by molar mass.

Columns and labels:
Helicobacter pylori G27 = test system: T1, Helicobacter pylori G27; experiment: microbe, parasite or virus in culture; conditions: G27, read-out: MIC
T1 construct: G27
Method: (§1) The sensitivity of H. pylori strains to various compounds was assessed by determining the MIC and evaluating the growth of the strains on the drug‐containing agar media. The MIC was measured using the broth microdilution assay as described previously.^[ [27] ^] Twofold serial dilutions of the test compounds were prepared using BHI broth supplemented with 10% FCS in 96‐well microtiter plates. Diluted H. pylori cultures, adjusted to a final concentration of 5 × 10^5 CFU mL^−1, were then added to each well. The cultures were incubated for 48–72 h in a microaerobic environment at 37 °C. The MIC was determined by visual inspection. H. pylori strains used in this study were cultured on brain heart infusion (BHI) broth (Oxoid, UK) or Columbia blood agar medium (Oxoid, UK) supplemented with 10% fetal calf serum (FCS). The cultures were incubated at 37 °C for 48–72 h under microaerobic environments in a double‐gas CO2 incubator (Binder, Germany). The wild‐type strains G27 and NSH57 used in this study were kindly provided by Prof. Nina R. Salama from the Fred Hutchinson Cancer Research Center (USA). Three clinical H. pylori strains (BYES129, BY924, and JIGC0009) were isolated from biopsy samples from three patients with gastritis or gastric cancer using standard protocols. Strains BHKS551 (NSH57 IR0203::fabA ΔfabX) and BHKS568 (NSH57 IR0203::fabX ΔfabX) were described previously.^[ [19] ^] The following 15 reference strains of different species were also used: Escherichia coli ATCC 25922, Klebsiella pneumoniae ATCC 35657, Pseudomonas aeruginosa PAO1, Salmonella enterica serovar Typhimurium ATCC 14028, Shigella dysenteriae Sd197, Acinetobacter baumannii ATCC 19606, Proteus mirabilis ATCC 29906, Enterobacter cloacae ATCC 13047, Stenotrophomonas maltophilia ATCC 51331, Bacillus subtilis 168, Enterococcus faecium ATCC 19434, Staphylococcus aureus ATCC 25923, Staphylococcus haemolyticus ATCC 29970, Listeria monocytogenes EGDe, and Morganella morganii ATCC 25830. These non‐Helicobacter bacterial strains were cultured as described previously.^[ [25] ^] We evaluated the antibacterial activities of selected compounds (IC 50 < 1 × 10^−6 M) against several H. pylori strains (Table S3∖, Supporting Information), particularly against strains BHKS551 and BHKS211 (the FabX overexpressed strain, hereinafter referred to as FabX^OE) to validate the on‐target effect in vivo. Note that FabX is overproduced 3.32‐fold in strain BHKS211 compared to the control strain BHKS210 carrying the empty vector (Figure S3, Supporting Information). […] This could be due to the fact that the carboxyl group of 8j readily deprotonates and acquires negative charge at physiological pH, which reduces its lipophilicity and prevents it from permeating the bacterial cell membrane. To address this issue, we employed a prodrug strategy and synthesized esters from 8j by attaching it to lipophilic alcohols (8p‐8u) or a lipophilic cation 6‐hydroxyhexyltriphenylphosphonium bromide (8v) (Figure 3). […] Compounds 8p‐8s were synthesized as shown in Scheme 1, while compounds 8t‐8v were synthesized as described in Scheme 3 . 8q was hydrolyzed with NaOH to yield 8j, which was subsequently reacted with various alcohols by Steglich esterification to produce compounds 8t‐8v.

[1] = test system: T2, Helicobacter pylori BHKS 210; experiment: microbe, parasite or virus in culture; conditions: BHKS210, read-out: MIC
T2 construct: BHKS210 (NSH57/empty vector pTM117) wild-type NSH57 with empty vector
Method: as §1

[2] = test system: T3, Helicobacter pylori BHKS 568; experiment: microbe, parasite or virus in culture; conditions: BHKS568, read-out: MIC
T3 construct: BHKS568 (NSH57 IR0203::fabX ΔfabX) native fabX relocated to IR0203
Method: as §1

[3] = test system: T4, Helicobacter pylori Hp129; experiment: microbe, parasite or virus in culture; conditions: HP129, read-out: MIC
T4 construct: Hp129
Method: as §1

FabX [4] = target: T5, FabX (Helicobacter pylori, UniProt O25465); experiment: FabX-FabI coupled assay, NADH absorbance […] nm; format: biochemical
T5 construct: gene HP_0773; recombinant from pQE2 vector in E. coli BL21(DE3) Rosetta, Ni-NTA, HiTrap-SP, Superdex75; FMN and [4Fe-4S] cofactors
T5 sequence (O25465 1-363): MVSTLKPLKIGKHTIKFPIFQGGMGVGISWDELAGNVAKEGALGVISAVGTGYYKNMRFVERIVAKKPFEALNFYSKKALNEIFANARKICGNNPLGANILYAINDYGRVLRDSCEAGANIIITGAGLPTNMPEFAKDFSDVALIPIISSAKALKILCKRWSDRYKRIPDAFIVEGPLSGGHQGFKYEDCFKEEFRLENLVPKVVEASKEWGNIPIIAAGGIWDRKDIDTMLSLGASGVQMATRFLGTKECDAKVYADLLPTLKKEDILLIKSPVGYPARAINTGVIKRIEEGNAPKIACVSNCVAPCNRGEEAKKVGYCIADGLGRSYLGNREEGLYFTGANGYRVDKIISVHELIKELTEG

FabX [5] = target: T5, FabX; experiment: biochemical; set-up: FabX inhibition in multienzymatic cascade coupled to FabI, NADH consumption read-out; conditions: read-out: % inhibition
From the text: To discover small molecule inhibitors targeting FabX, we performed protein thermal shift assay (PTSA) based high‐throughput screening against an in‐house chemical library of 11000 small molecule compounds, and established a multienzymatic cascade reaction system by incorporating the enoyl acyl carrier protein reductase FabI from H. pylori into the hit validation system, where FabI catalyzes the reduction of FabX catalytic product enoyl‐ACP in the fourth step of the elongation cycle, accompanying the elimination of NADH (Figure 2A,B). […] The subcloning, expression, and purification of FabX, FabI, and ACP from H. pylori, FabK from S. pneumoniae, and FabA from E. coli were described previously.^[ [19] ^] Briefly, fabX, fabI, fabK, and fabA genes were subcloned to pQE2 vector, while the Acp gene was subcloned to pET32a vector, respectively. The proteins were expressed in BL21(DE3) Rosetta cells, purified by using Ni‐NTA affinity column, HiTrap‐SP column, GE HiLoad 16/600 Superdex75 prep grade gel‐filtration column. The peaks from the gel‐filtration column were further pooled, concentrated, and the final concentration of the proteins was quantified by the Bradford reagent purchased from Bio‐Rad.

FabX [6] = target: T5, FabX; experiment: isothermal titration calorimetry; format: binding
FabX [7] = target: T5, FabX; experiment: X-ray crystal structure, […] Å; format: binding; conditions: bound cofactor in the complex with FBX-1991
FabX [8] = target: T5, FabX; experiment: FabX-FabI coupled assay, NADH absorbance […] nm; format: biochemical; conditions: read-out: FabX enzymatic activity / 10 × 10^-6 M [%]

| SMILES | MIC (Helicobacter pylori G27) [µg/mL] | MIC [1] [µg/mL] | MIC [2] [µg/mL] | MIC [3] [µg/mL] | IC50 (FabX [4]) [nM] | inhibition at 1 µM (FabX [5]) [%] | inhibition at 10 µM (FabX [5]) [%] | Kd (FabX [6]) [nM] | X-ray crystal structure, 2.00 Å (FabX [7]) | inhibition at 10 µM (FabX [8]) [%] |
| --- | --- | --- | --- | --- | --- | --- | --- | --- | --- | --- |
| O=C(O)c1cccc(NS(=O)(=O)c2cccnc2Nc2ccc(Cl)cc2Cl)c1 [8j, FBX-1872] | > 64 | > 128 | > 64 | > 64 | 437 ± 42 | 65 | 100 | 435 ± 46 | – | – |
| Cc1cc2nc3c(=O)[nH]c(=O)nc-3n(C[C@H](O)[C@H](O)[C@H](O)COP(=O)(O)O)c2cc1C [FMN] | – | – | – | – | – | – | – | – | binds in the region between the FMN cofactor and the catalytic tunnel of FabX | – |
| CC(C)OC(=O)c1cccc(NS(=O)(=O)c2cccnc2Nc2ccc(Cl)cc2Cl)c1 [8r] | 64 (≈ 133 µM) | 32 (≈ 66.6 µM) | 32 (≈ 66.6 µM) | 32 (≈ 66.6 µM) | – | – | – | – | – | 37 |
